What was measured:
[1] = Test for evaluating oral absorption: serum concentration by HPLC; type: in vivo, rat; conditions: SD male rats, oral 30 mg/kg, one hour after administration
Experimental: (Test for Evaluating Oral Absorption)
The absorption of the compound of the present invention upon oral administration was evaluated in rats.
The compound of the present invention was dissolved in DMSO (final concentration: 20%), and then dissolved or suspended in a 0.1N hydrochloric acid physiological saline solution or a 1% polyethylene hardened castor oil (NIKOL HCO-60, manufactured by Nikko Chemicals Co., Ltd.).
This solution was administered orally, at a dose of 30 mg/kg, to a group of three SD male rats (Japan SLC, 6 weeks old). One hour after administration and following anesthetization, blood was collected from the abdominal vena cava in a plastic blood collection tube containing a serum separating agent. The blood sample was left to stand for approximately one hour, and following clotting, the serum was obtained by conducting a centrifugal separation at 3,000 rpm for a period of 10 minutes. […] The quantity of the compound of the present invention that existed within this filtered solution was measured by high-performance liquid chromatography (HPLC), under the conditions shown below. […]
The filtered solution for HPLC described in the previous paragraph was measured using the following representative conditions. […]

[2] = tested on: lipid peroxidation in retina homogenate; experiment: Test for evaluating tissue distribution: ex vivo inhibition of lipid peroxidation, retina; type: in vivo, rat; conditions: SD male rats, oral administration, one hour after administration, with feeding
Experimental: (§1) (Test for Evaluating Tissue Distribution)
(§2) The tissue distribution properties of the compound of the present invention were evaluated by measuring the ex vivo inhibition of lipid peroxidation.
(§3) The compound of the present invention was dissolved in DMSO (final concentration: 20%), and then dissolved or suspended in a 0.1N hydrochloric acid physiological saline solution or a 1% polyethylene hardened castor oil (NIKOL HCO-60, manufactured by Nikko Chemicals Co., Ltd.)
This solution was administered orally, at a dose of 30 mg/kg, to either a group of three SD male rats (Japan SLC, 6 weeks old) that had been feed-deprived for 24 hours, or a group of three SD male rats (Japan SLC, 6 weeks old) that had not been feed-deprived. One hour after administration and following anesthetization, the brains and eyeballs were removed. Using the method disclosed above in the section relating to the “test for evaluating in vitro inhibition of lipid peroxidation”, the brains, and the retinas separated from the eyeballs were homogenized, and the quantity of lipid peroxide within each tissue homogenate was then measured.
(§4) The inhibition rate of the compound of the present invention within each of the tissues was determined from the quantities of lipid peroxide generated in a control group (20% DMSO-0.1N hydrochloric acid physiological saline solution/1% polyethylene hardened castor oil) and in the group administered with the compound of the present invention.

[3] = tested on: lipid peroxidation in pig retina homogenate; experiment: Test for evaluating in vitro inhibition of lipid peroxidation (thiobarbituric acid method); type: biochemical; conditions: 500 μM cysteine and 5 μM FeSO4, 30 minutes at 37° C., malondialdehyde, read-out: in vitro inhibition of lipid peroxidation (50% inhibition concentration IC50)
Experimental: (Test for Evaluating in vitro Inhibition of Lipid Peroxidation)
Evaluation of the in vitro inhibition of lipid peroxidation of the compound of the present invention was conducted in accordance with the method disclosed by Malvy et al. (Malvy, C., et al., Biochemical and Biophysical Research Communications, 1980, vol. 95, pp. 734 to 737).
As the organ, retinas that had been separated from pig eyeballs and subsequently stored at −80° C. were used. At the time of use, a 5-fold excess of a phosphate-buffered physiological saline solution (pH 7.4) was added, and the mixture was homogenized using a microhomogenizer (PHYSCOTRON, NITI-ON).
To this pig retina homogenate were added 0.15M KCl, the compound of the present invention, 500 μM cysteine and 5 μM FeSO4, and the mixture was then incubated for 30 minutes at 37° C.
The malondialdehyde generated upon decomposition of the lipid peroxide was measured using the thiobarbituric acid method. Based on the measured values, the 50% inhibition concentration (hereafter also referred to as “IC50”) of the compound of the present invention was determined.

[4] = tested on: lipid peroxidation in brain homogenate; experiment: Test for evaluating tissue distribution: ex vivo inhibition of lipid peroxidation, brain; type: in vivo, rat; conditions: SD male rats, oral 30 mg/kg, one hour after administration, fasting
Experimental: as §1, §2, §3
This solution was administered orally, at a dose of 30 mg/kg, to either a group of three SD male rats (Japan SLC, 6 weeks old) that had been feed-deprived for 24 hours, or a group of three SD male rats (Japan SLC, 6 weeks old) that had not been feed-deprived. […] Using the method disclosed above in the section relating to the “test for evaluating in vitro inhibition of lipid peroxidation”, the brains, and the retinas separated from the eyeballs were homogenized, and the quantity of lipid peroxide within each tissue homogenate was then measured.
as §4

SMILES	concentration at 1 h ([1]; rat, serum) [µM]	ex vivo inhibition of lipid peroxidation 50% inhibition quantity (ID50) Retina [2]	IC50 [3] [µM]	ex vivo inhibition of lipid peroxidation inhibition rate (%) Brain [4]	serum concentration [1]
Cc1c(C)c2c(c(CNc3ccc(-c4ccn[nH]4)cc3)c1N)CC(C)(C)O2 [Compound 29, 5-(4-(5-amino-2,2,6,7-tetramethyldihydrobenzofuran-4-ylmethylamino)phenyl)pyrazole]	2.4	60 (with feeding) mg/kg	–	–	–
Cc1c(C)c2c(c(CCc3ccccc3)c1N)CC(C)(C)O2 [Compound 83, 2,2,6,7-tetramethyl-4-phenylethyl-5-aminodihydrobenzofuran]	–	67 (with feeding) mg/kg	0.26	96 (fasting) %	–
Cc1c(C)c2c(c(CN)c1N)CC(C)(C)O2 [Compound R-1, reference compound]	–	72 (with feeding) mg/kg	0.3	–	Below detection limit

Source: patent publication US20090275753A1, “ORTHO-SUBSTITUTED ANILINE DERIVATIVE AND ANTIOXIDANT DRUG” (NIPPON SODA CO., LTD., priority 2005, published 2009)
